# ChEMBL document CHEMBL1201862, “PubChem BioAssay data set” (2004)
# Active and inactive are the calls of the source.
# Experiments:
# [1] = biological target: Glucose-6-phosphate 1-dehydrogenase (Homo sapiens, UniProt P11413); assay: inhibition of Homo sapiens G6PD, dose series – biochemical, fluorescence, selectivity assay for P. falciparum G6PD inhibitor project, dose response (AID 504792); assay type: functional
# [2] = biological target: T1, Apoptotic protease-activating factor 1 (Homo sapiens, UniProt O14727); assay: activation of Apaf-1 mediated apoptosis – fluorescent, uHTS hits, dose response (AID 588554); assay type: functional
# T1 sequence (O14727 whole entry): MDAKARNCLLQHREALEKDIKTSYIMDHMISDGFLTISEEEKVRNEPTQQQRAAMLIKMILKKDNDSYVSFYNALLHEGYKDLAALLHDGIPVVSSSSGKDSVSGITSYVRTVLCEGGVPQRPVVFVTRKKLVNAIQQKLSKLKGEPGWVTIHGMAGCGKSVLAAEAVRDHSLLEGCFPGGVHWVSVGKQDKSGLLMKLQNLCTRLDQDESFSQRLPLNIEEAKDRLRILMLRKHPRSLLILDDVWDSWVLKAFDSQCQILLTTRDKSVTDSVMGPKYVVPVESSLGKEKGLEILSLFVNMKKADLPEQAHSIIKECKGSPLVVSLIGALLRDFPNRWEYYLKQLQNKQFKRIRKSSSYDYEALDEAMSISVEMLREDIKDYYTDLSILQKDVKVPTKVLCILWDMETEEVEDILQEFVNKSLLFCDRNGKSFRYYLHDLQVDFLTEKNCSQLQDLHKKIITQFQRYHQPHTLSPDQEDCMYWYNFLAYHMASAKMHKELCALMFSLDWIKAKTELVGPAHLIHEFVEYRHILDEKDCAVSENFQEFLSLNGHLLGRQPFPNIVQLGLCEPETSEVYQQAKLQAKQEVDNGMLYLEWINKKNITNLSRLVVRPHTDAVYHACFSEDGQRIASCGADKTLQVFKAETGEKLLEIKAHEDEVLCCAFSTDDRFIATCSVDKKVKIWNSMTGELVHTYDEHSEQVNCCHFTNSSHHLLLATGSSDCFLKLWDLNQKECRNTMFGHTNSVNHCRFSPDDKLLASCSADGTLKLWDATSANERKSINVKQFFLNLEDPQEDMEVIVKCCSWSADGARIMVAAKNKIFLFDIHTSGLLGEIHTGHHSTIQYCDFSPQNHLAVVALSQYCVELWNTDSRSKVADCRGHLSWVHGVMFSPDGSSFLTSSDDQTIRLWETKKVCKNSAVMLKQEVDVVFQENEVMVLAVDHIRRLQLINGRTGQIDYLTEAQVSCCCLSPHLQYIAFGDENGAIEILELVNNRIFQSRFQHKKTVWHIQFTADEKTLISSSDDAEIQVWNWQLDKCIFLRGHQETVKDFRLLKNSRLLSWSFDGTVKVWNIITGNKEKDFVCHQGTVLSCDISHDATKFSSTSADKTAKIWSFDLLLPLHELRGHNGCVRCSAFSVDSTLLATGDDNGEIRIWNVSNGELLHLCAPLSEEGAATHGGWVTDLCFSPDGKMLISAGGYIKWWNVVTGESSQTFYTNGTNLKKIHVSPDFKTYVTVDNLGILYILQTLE
# [3] = biological target: T1, Apoptotic protease-activating factor 1; assay: SAR analysis of small molecule Activators of Apaf-1 in a Fluorescent assay.; assay type: functional; details: read-out: EC50_Mean
# [4] = biological target: T2, Polyadenylate-binding protein 1 (Homo sapiens, UniProt P11940); assay: MLLE domain peptide-binding blockers, IC50 – biochemical, fluorescence polarization, FITC-PAM2 peptide, dose response (AID 602259); assay type: functional; details: read-out: IC50_Mean
# T2 sequence (P11940 whole entry, the tested form may be a part): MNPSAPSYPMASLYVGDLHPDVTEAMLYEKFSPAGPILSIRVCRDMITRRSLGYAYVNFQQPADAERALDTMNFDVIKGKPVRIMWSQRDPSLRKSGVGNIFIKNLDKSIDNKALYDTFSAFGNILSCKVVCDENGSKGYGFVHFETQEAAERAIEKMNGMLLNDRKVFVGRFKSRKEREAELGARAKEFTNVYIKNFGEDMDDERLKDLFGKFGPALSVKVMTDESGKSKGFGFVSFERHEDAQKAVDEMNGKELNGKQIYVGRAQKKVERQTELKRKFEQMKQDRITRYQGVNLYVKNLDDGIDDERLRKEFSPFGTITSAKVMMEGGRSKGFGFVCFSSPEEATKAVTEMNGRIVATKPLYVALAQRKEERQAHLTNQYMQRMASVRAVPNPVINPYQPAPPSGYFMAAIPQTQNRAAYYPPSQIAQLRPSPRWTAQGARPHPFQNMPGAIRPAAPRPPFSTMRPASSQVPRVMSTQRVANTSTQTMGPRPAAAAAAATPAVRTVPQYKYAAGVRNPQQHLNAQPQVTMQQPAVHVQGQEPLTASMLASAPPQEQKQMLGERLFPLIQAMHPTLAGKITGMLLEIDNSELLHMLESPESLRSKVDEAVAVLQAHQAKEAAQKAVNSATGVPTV
# [5] = biological target: T3, Replicative DNA helicase DnaB (Mycobacterium tuberculosis, UniProt P9WMR3); assay: DnaB intein splicing inhibitors, dose response, biochemical, cell-free fluorescence (AID 449749); assay type: functional
# T3 sequence (P9WMR3 whole entry): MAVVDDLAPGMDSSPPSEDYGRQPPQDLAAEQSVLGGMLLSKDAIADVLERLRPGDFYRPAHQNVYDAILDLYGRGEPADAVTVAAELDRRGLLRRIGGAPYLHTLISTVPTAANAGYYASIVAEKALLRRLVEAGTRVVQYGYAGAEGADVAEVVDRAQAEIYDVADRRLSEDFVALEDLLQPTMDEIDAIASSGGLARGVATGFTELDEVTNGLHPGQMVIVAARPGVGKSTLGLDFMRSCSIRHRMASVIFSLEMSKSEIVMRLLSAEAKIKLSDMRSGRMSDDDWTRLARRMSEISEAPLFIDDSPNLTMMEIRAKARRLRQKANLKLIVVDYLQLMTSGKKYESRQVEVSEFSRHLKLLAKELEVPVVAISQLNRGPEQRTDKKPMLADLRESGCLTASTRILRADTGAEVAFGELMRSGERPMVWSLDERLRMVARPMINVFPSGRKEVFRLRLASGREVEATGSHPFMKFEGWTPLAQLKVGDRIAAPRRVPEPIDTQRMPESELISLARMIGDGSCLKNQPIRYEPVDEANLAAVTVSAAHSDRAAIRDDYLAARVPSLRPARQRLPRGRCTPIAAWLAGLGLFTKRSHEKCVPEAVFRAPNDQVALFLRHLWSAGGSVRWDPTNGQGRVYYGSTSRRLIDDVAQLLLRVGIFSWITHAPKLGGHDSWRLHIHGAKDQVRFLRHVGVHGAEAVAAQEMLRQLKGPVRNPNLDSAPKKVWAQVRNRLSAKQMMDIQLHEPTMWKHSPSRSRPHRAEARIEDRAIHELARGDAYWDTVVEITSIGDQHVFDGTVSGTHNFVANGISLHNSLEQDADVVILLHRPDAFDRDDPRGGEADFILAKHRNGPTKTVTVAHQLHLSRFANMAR
# [6] = biological target: T4, Caspase-6 (Homo sapiens, UniProt P55212); assay: inhibition of CASP6 peptide cleavage – biochemical, VEID-R110 fluorescence, cherry-pick, dose response (AID 720632)
# T4 sequence (P55212 whole entry): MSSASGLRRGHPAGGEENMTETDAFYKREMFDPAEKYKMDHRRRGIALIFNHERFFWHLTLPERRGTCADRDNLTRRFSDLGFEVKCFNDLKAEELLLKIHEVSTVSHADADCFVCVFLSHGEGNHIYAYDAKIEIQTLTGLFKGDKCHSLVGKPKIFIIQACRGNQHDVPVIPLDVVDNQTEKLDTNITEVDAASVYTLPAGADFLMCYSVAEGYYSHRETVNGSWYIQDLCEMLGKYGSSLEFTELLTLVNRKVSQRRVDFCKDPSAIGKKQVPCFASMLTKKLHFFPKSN
# [7] = biological target: Caspase-7 (Homo sapiens, UniProt P55210); assay: caspase-7 enzyme inhibition, selectivity check – biochemical, DEVD-R110 fluorescence, cherry-pick, selectivity assay for caspase-6 inhibitor project, dose response (AID 743295); assay type: functional
# [8] = biological target: T2, Polyadenylate-binding protein 1; assay: MLLE binding blockers, Cy5 peptide tracer – biochemical, fluorescence polarization, Cy5-PAM2 peptide, secondary, miRNA deadenylation inhibitor project, dose response (AID 602260); assay type: functional; details: read-out: IC50_Mean
# [9] = biological target: T5, Protein RecA (Mycobacterium tuberculosis, UniProt P9WHJ3); assay: Fluorescence Cell-Free Homogeneous Dose Retest to Identify Inhibitors of RecA-Intein Splicing Activity. [Related pubchem assays (depositor defined):AID2097, AID2223, AID489010, AID492950]; assay type: functional
# T5 sequence (P9WHJ3 whole entry): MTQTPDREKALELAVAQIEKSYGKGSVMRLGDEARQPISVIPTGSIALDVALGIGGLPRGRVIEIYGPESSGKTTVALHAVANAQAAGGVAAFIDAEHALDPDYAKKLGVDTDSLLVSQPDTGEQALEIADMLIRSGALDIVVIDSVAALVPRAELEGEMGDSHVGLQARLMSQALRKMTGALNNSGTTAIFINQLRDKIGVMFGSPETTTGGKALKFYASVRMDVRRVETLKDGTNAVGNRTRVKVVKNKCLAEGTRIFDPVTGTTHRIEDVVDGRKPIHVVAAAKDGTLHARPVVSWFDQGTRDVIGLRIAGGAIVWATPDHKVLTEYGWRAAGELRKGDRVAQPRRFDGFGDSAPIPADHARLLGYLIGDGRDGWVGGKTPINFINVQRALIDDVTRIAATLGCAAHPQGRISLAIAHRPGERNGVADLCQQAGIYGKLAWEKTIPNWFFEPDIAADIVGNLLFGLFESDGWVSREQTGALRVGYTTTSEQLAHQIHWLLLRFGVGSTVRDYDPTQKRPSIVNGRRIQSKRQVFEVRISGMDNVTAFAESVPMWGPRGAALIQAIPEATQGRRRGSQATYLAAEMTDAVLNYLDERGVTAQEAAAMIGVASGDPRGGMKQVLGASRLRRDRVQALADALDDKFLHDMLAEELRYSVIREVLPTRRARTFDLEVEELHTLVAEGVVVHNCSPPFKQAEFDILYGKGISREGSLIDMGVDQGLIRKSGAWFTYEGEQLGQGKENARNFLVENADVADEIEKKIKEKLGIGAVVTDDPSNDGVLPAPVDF
# [10] = restored growth of temperature-sensitive Burl-1 yeast – whole organism, S. cerevisiae, Burl-1 ts mutant, luminescence, counter-screen for SUMOylation pathway inhibitor project, dose response (AID 463199); assay type: functional
# [11] = biological target: T6, Dual specificity protein phosphatase 3 (Homo sapiens, UniProt P51452); assay: SAR VHR1 absorbance Assay for In Vitro dose response studies. [Related pubchem assays (depositor defined):AID1654, AID1661, AID1878, AID1992, AID2004]
# T6 sequence (P51452 whole entry): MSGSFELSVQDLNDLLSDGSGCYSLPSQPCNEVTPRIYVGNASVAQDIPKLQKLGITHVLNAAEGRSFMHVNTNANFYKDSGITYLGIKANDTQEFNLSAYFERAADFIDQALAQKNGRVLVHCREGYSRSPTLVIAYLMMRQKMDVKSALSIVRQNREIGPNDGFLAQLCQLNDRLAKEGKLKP
# [12] = tested on: Vero; assay: viability of Vero cells under compound – cytotoxicity control for flavivirus capping enzyme inhibitors (AID 588742); assay type: functional; details: Chlorocebus sabaeus
# [13] = biological target: T7, Probable nicotinate-nucleotide adenylyltransferase (Staphylococcus aureus (strain N315), UniProt P65502); assay type: functional, Staphylococcus aureus subsp. aureus N315;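 for IC50 Mean: confirmatory dose-response retesting of NadD inhibitor hits first found in an ultra-high-throughput screen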
# T7 sequence (P65502 whole entry): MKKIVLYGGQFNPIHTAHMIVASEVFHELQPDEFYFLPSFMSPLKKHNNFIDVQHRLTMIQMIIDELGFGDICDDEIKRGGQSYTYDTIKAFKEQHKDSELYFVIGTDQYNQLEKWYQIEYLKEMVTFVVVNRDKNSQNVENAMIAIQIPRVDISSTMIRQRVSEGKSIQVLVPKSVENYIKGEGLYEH
# [14] = biological target: T8, Fatty acid synthase (Homo sapiens, UniProt P49327); assay: inhibition of human FAS-TE enzyme activity – biochemical, endpoint fluorescence intensity, uHTS hits, dose response (AID 624327); assay type: functional;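 note: fluorescence from hydrolysis of an O-methyl fluorescein acyl ester substrate by the enzyme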
# T8 sequence (P49327 whole entry): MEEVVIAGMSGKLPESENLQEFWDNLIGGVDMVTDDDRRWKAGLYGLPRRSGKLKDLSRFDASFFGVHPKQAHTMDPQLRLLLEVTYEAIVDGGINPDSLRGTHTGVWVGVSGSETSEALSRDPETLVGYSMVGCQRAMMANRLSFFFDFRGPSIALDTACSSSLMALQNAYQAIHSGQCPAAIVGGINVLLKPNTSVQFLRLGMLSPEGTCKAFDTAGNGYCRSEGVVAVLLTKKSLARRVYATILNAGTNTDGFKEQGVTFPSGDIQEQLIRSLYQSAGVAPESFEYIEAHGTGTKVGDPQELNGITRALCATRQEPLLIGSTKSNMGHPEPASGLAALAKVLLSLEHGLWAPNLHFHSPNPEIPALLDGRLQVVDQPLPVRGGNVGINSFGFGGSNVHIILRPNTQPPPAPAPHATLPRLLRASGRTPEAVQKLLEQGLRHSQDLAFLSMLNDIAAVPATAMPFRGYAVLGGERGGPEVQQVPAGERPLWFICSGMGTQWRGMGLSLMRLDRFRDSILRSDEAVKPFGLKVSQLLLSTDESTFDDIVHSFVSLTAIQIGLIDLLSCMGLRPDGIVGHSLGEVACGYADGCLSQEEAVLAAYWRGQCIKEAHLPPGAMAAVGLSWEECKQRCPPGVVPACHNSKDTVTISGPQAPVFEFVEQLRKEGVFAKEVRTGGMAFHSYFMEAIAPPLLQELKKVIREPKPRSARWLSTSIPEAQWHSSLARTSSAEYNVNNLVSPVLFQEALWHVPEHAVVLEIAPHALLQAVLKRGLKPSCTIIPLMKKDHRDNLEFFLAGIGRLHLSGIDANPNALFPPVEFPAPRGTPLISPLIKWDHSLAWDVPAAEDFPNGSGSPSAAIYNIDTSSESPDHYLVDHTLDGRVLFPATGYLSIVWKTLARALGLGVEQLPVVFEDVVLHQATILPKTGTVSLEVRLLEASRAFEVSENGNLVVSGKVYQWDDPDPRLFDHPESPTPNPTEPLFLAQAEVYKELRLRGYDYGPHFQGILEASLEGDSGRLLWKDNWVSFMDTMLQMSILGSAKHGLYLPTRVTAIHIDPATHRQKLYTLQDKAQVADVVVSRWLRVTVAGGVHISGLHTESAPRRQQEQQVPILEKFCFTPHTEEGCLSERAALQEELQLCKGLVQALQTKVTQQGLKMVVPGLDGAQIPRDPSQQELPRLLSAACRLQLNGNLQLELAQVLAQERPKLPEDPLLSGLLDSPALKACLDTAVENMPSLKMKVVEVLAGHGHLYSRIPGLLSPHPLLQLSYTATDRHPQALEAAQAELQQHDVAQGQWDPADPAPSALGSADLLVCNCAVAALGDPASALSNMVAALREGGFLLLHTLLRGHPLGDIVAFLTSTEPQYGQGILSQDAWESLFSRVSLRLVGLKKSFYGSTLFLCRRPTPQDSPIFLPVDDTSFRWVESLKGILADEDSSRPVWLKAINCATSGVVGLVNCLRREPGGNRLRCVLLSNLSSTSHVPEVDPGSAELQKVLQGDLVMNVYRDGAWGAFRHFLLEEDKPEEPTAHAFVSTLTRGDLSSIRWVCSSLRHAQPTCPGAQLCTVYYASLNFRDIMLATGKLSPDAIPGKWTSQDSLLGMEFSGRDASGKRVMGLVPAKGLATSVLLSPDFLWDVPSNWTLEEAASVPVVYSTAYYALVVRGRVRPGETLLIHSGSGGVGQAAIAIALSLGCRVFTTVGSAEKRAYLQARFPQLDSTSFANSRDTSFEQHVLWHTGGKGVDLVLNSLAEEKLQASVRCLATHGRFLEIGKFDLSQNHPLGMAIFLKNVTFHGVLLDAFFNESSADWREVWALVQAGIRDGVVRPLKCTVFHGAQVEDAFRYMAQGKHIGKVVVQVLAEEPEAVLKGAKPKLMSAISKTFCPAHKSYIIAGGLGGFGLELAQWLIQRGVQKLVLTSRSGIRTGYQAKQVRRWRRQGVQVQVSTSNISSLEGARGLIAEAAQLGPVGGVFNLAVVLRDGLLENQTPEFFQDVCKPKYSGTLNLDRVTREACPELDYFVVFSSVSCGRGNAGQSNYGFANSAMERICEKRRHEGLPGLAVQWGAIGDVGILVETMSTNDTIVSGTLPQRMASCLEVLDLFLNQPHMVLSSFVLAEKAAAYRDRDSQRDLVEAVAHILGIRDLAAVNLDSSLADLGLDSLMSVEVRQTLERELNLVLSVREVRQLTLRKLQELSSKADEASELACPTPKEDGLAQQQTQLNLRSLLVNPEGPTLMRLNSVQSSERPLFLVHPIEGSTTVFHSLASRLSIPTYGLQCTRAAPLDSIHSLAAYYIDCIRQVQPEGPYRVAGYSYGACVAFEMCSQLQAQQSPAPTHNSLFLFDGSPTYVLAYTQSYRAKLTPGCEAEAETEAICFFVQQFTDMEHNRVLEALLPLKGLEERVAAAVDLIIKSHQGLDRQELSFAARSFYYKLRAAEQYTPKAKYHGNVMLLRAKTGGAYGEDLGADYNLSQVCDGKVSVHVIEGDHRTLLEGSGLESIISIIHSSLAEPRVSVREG
# [15] = biological target: T6, Dual specificity protein phosphatase 3; assay: SAR VHR1 Fluorescent Assay for In Vitro dose response studies Set 2. [Related pubchem assays (depositor defined):AID1654, AID1661, AID1878]; assay type: functional
# [16] = biological target: T7, Probable nicotinate-nucleotide adenylyltransferase; assay type: functional, Staphylococcus aureus subsp. aureus N315; details: read-out: IC50_Mean
# [17] = biological target: T8, Fatty acid synthase; assay: inhibition of human FAS-TE enzyme activity – biochemical, kinetic fluorescence intensity, dose response (AID 624326); assay type: functional;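 note: rate of fluorescence rise from hydrolysis of a fluorogenic O-methyl fluorescein ester substrate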
# [18] = biological target: T9, Dual specificity protein phosphatase 6 (Rattus norvegicus, UniProt Q64346); assay type: functional;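 note: confirmatory in vitro dose-response testing of MKP-3 inhibition; recombinant His-tagged MKP-3 made in E. coli BL21 with OMFP substrate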
# T9 sequence (Q64346 whole entry): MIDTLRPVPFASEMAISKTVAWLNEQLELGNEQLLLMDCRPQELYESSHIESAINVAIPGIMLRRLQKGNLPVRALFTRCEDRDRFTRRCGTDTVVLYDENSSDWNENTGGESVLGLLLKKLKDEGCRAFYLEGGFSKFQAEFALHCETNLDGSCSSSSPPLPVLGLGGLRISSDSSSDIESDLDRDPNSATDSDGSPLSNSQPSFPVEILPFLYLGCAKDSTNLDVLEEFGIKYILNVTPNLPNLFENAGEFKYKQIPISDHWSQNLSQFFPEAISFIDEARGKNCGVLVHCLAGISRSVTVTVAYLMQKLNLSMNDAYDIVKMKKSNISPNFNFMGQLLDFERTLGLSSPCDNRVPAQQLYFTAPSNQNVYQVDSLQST
# [19] = biological target: T6, Dual specificity protein phosphatase 3; assay: SAR VHR1 Fluorescent Assay for In Vitro dose response studies. [Related pubchem assays (depositor defined):AID1654, AID1661, AID1878, AID1992, AID2004, AID2070, AID2085]; assay type: functional
# [20] = biological target: Lysine-specific demethylase 4C (Homo sapiens, UniProt Q9H3R0); assay: inhibition of JMJD2C H3K9me3 demethylation – biochemical, DELFIA europium, cherry-picked samples, dose response (AID 488835); assay type: functional
# Lysine-specific demethylase 4C, sequence (Q9H3R0 whole entry): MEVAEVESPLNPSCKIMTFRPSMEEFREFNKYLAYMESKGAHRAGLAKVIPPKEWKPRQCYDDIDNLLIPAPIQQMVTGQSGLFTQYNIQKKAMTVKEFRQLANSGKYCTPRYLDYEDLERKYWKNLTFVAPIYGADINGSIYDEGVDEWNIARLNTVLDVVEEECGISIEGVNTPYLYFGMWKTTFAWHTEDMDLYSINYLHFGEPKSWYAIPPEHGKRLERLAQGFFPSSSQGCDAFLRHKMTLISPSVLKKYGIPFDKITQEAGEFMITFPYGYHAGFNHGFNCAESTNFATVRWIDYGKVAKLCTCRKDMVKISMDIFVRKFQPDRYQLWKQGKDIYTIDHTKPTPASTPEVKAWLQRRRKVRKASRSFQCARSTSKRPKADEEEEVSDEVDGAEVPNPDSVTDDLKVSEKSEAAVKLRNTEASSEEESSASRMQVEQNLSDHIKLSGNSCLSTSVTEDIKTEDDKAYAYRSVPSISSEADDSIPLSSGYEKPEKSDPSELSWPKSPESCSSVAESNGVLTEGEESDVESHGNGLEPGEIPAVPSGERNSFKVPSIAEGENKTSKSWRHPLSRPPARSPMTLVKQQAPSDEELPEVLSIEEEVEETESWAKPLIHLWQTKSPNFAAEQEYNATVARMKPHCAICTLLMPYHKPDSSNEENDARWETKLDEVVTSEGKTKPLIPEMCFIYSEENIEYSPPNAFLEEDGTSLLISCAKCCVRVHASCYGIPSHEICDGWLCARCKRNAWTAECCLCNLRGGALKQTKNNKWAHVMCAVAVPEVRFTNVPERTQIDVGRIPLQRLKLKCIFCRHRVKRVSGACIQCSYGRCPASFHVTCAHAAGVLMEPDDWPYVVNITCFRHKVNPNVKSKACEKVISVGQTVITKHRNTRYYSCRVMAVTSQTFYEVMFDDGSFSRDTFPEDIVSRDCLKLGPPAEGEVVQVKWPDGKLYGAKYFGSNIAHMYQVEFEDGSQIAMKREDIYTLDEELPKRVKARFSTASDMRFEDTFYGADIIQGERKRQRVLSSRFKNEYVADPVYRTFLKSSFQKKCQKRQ
# [21] = biological target: T10, Cytochrome P450 1A2 (Homo sapiens, UniProt P05177);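 note: PubChem cytochrome P450 panel assay, CYP1A2 panel member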
# T10 sequence (P05177 whole entry): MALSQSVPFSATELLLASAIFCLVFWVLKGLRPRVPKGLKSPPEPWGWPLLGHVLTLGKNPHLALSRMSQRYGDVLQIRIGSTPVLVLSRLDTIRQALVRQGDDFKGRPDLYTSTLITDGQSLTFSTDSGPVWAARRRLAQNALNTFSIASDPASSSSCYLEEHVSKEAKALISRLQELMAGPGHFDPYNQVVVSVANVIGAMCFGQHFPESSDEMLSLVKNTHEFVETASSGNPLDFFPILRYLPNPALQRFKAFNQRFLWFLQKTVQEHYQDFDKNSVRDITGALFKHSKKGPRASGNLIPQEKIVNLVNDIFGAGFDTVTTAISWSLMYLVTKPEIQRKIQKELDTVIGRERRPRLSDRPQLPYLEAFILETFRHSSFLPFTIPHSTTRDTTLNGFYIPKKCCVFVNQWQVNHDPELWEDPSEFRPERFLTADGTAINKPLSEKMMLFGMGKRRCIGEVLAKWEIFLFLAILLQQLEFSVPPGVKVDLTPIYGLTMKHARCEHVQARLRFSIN
# [22] = biological target: Cytochrome P450 2D6 (Homo sapiens, UniProt P10635);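 note: CYP2D6 member of a cytochrome P450 panel assay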
# [23] = biological target: Cytochrome P450 2C19 (Homo sapiens, UniProt P33261); assay: Cytochrome panel assay with activity outcomes. Panel member name: p450-cyp2c19 Compounds with AC50 equal or less than 10 uM are considered active; assay type: functional
# Cytochrome P450 2C19, sequence (P33261 whole entry): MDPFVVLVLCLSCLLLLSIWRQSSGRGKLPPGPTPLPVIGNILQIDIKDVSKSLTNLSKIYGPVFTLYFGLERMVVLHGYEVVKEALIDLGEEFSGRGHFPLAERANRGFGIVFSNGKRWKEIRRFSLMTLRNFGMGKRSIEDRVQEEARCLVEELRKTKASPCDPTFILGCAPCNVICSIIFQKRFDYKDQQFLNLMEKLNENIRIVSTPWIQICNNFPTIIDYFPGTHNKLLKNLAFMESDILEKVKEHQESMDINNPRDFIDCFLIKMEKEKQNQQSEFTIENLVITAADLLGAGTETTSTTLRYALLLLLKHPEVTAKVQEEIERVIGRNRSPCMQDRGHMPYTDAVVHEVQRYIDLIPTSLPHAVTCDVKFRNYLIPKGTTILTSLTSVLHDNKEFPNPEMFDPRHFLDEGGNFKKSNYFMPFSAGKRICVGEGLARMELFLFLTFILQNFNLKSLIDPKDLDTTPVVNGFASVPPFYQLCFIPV
# 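Throughout, for EC50 Mean: caspase-3 cleavage of fluorogenic Rh110 DEVD substrate downstream of apoptosome activation.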
compound,measurement,setting,value
CC(CNc1ccccc1O)C(=O)O (stereo not drawn),IC50,[1],> 80 µM (inactive)
same,EC50,[2],14 µM (active)
same,EC50,[3],> 100 µM (inactive)
same,IC50,[4],> 66 µM (inactive)
same,AC50,[5],28.7 µM (active)
same,AC50,[6],3.52 µM (active)
same,AC50,[7],> 70 µM (inactive)
same,IC50,[8],> 66 µM (inactive)
same,EC50,[9],7.79 µM (active)
CCOC(=O)c1c(CN2CCCCC2)n(C)c2cc(Br)c(O)c(CN(C)C)c12,AC50,[10],52.5 µM (active)
O=C(O)CSc1cc(C(=O)c2ccccc2O)cn2c(=O)c3c(-c4ccccc4)csc3nc12,IC50,[11],1.93 µM (active)
same,CC50,[12],38.8 µM (active)
same,IC50,[13],7.1 µM (active)
same,IC50,[14],4.85 µM (active)
same,IC50,[15],12.3 µM (active)
same,IC50,[16],28.4 µM (active)
same,IC50,[17],4.3 µM (active)
same,IC50,[18],13.2 µM (active)
same,IC50,[19],14.6 µM (active)
CCCn1c(SCC(=O)NNC(=O)c2ccc(C)cc2)nnc1C(C)C,AC50,[20],9.91 µM (active)
CN(C)CCN(c1ccccn1)c1ccccn1,AC50,[21],inconclusive
same,AC50,[22],3.98 µM (inconclusive)
same,AC50,[23],inconclusive
